Data published in patent US12285397B2, “Use of (s)-3-amino-4-(difluoromethylenyl) cyclopent-1-ene-1-carboxylic acid and related compounds, (1S,3S)-3-amino-4-(difluoromethylidene) cyclopentane-1-carboxylic acid and vigabatrin in the treatment of developmental disorders” (Ovid Therapeutics Inc., priority 2018, dated 2025).
Where two headings read alike, the source gives them in different places.

Experiments:
[1] = cited from earlier work; for tmax: single 37-50 mg/kg dose of an oral solution
[2] = cited from earlier work
Fmr1 KO2 mice = assay: Open field hyperactivity (locomotor activity), Fmr1 KO2 mice; assay type: in vivo, mouse; conditions: 0.1 mg/Kg
From the text: (§1) Mutant fmr1 knockout (KO) mice recapitulate the Fragile X syndrome (FXS) phenotype and represent a preclinical model for assessment of putative drug treatments. In this study three different mice models of FXS were used: Fmr1 KO1 is the original Fmr1 knockout animal that carries an insertion in exon 5. See, e.g., Bakker C E, et al., The Dutch-Belgian Fragile X Consortium, Fmr1 knockout mice: A model to study fragile X mental retardation. Cell. 1994; 78:23-33 It is a protein null, although Fmr1 mRNA is still present. It is backcrossed to the C57/B16 strain. Subsequently, these mice were bred into different background strains, such as the FVB inbred mouse strain. Fmr1 KO2 is a null allele at Fmr1 generated by deletion of the promoter and first exon of Fmr1. See, Mientjes, E J et al., The generation of a conditional Fmr1 knock out mouse model to study Fmrp function in vivo. Neurobiology of Disease (2006) 21(3): 549-555. It is both protein and mRNA null. Backcrossed to the C57/B16 strain. Genotyping was accomplished using TransnetXY Automated Genotyping (http://www.transnetyx.com/). TRANSNETYX, INC., 8110 Cordova Rd. Suite 119, Cordova, TN 38016, USA.
(§2) The mice were housed in plastic cages (35×30×12 cm), 5 in each and habituated to the animal facilities for at least a week before test. The room temperature (21±2° C.), relative humidity (55±5%), a 12-h light-dark cycle (lights on 7 a.m.-7 p.m.) and air exchange (16 times per h) were automatically controlled. The animals had free access to commercial food pellets and water. Testing was conducted during the light phase. Testing was conducted on Fmr1 knockout mice and their wild-type (WT) littermates. Ten mice per treatment group, 14 weeks of age, were used for behavioral experiments. Experiments were conducted in line with the requirements of the UK Animals (Scientific Procedures) Act, 1986.
(§3) Oral dosing was performed by using 1.5-in. curved, 20-gauge, stainless steel feeding needles with a 2.25-mm ball (Braintree Scientific, Braintree, MA). Each gavage treatment was given in 0.5% methyl cellulose (Methyl Cellulose M0512, Sigma-Aldrich, St Louis, MO) used as vehicle with or without treatment compounds. The same veterinarian, blinded to the treatment groups, performed the procedure, and documented animal reactions to oral gavage. Reactions considered to indicate stress were defined as excessive struggling during gavage or abnormal behavior after gavage (labored breathing, frozen stance, exaggerated jumping, shuddering, and hunched posture).
(§4) For experiments all mice were tested once in the same apparatus. Prior to testing, mice not in the study were placed in the apparatus for some minutes before the experiment. The apparatus was then cleaned with moist and dry tissues before testing each mouse. The aim was to create a low but constant background mouse odor for all experimental subjects. All experiments were conducted with the experimenters blind to genotype and drug treatment during all testing and data analysis. Separate investigators prepared and coded dosing solutions, allocated the mice to the study treatment groups, dosed the animals, and collected the behavioral data. Data were analyzed by one-way analysis of variance (ANOVA) followed by post-hoc comparisons where appropriate using Tukey's Multiple Comparison Test. Data are represented as the mean and standard error of the mean (SEM).
1. […]

Fmr1 KO1 mice = assay: Open field hyperactivity (locomotor activity), Fmr1 KO1 mice; assay type: in vivo, mouse; conditions: 0.1 mg/Kg
From the text: as §1, §2, §3, §4
1. […]

[3] = tested on: Fmr1 KO1 transgenic mice in an FVB background; assay: Audiogenic seizures (AGS), Fmr1 KO1 mice in FVB background; assay type: in vivo, mouse; conditions: tested 20 minutes after injection, audio stimulus 60 seconds at 124 db
Protocol: 4. Audiogenic Seizures (AGS) are reflex seizures generated by loud noises in genetically predisposed mice. The Fmr1 KO1 mice display audiogenic seizures depending on age and background strain, the Fmr1 KO1 mouse on the FVB background is characterized by an increased AGS susceptibility at all ages and is considered a good animal model for epilepsy. The effect of (S)-3-amino-4-(difluoromethylenyl) cyclopent-1-ene-1-carboxylic acid was tested on AGS Fmr1 KO1 transgenic mice in an FVB background. Observable criteria are: 1. normal behavior, 2. wild running, 3. seizure, and 4. respiratory arrest.
(S)-3-amino-4-(difluoromethylenyl) cyclopent-1-ene-1-carboxylic acid was administered to Fmr1 KO1 mice, males, age 2 months in the following amounts: 0.01 mg/kg, 0.05 mg/kg, and 0.1 mg/kg. Positive controls were administered 2-Methyl-6-(phenylethynyl)pyridine (MPEP), a mGluR5 antagonist, 30 mg/kg by i.p. and tested 20 minutes after injection. Audio stimulus was administered continuously for 60 seconds at 124 db.

[4] = MPEP (positive control) 30 mg/kg i.p.

Structure (SMILES): C=CC(N)CCC(=O)O (racemic) [vigabatrin, (RS)-4-aminohex-5-enoic acid]
- cerebrospinal concentrations as share of the plasma concentration ([1]; 6 h after a single oral dose): 10%
- terminal half-life ([1]; adults): ~10.5 h
- terminal half-life ([1]; children (10 years-16 years)): ~9.5 h
- area under plasma concentration-time curves versus dose ([1]; in vivo): dose-linear pharmacokinetics
- protein binding ([1]; in vivo): lack of protein binding
- terminal half-life ([1]; infants (5 months-2 years)): about 5.7 hours
- tmax ([1]; children): about 1 hour
- tmax ([1]; neonates and infants): approximately 2.5 hours

Structure (SMILES): N[C@H]1C[C@@H](C(=O)O)CC1=C(F)F [(1S,3S)-3-amino-4-(difluoromethylidene)cyclopentane-1-carboxylic acid]
- increase in AUCs with dose ([2]; in the dose range 5 mg-500 mg): greater than proportional increase
- Cmax increase with dose ([2]; over a range of 5 mg-500 mg): dose proportional

Structure (SMILES): N[C@H]1C=C(C(=O)O)CC1=C(F)F [(S)-3-amino-4-(difluoromethylenyl)cyclopent-1-ene-1-carboxylic acid]
- Effect on open field hyperactivity (FIG. 1) (Fmr1 KO2 mice): significantly reduced
- Effect on open field hyperactivity (FIG. 7) (Fmr1 KO1 mice): reversed hyperactivity

Structure (SMILES): Cc1cccc(C#Cc2ccccc2)n1 [MPEP, 2-Methyl-6-(phenylethynyl)pyridine, reference compound]
- Seizure ([3]; 30 mg/kg i.p.): 0/10
- Wild running ([3]; 30 mg/kg i.p.): 0/10
- Incidence [3, 4]: 0%
- Respiratory arrest [3, 4]: 0/10
